According to PMC9321742 (Viruses, 2022):
Read-outs that look alike come from different tables or passages of the source.

Assays:
SARS-CoV-2 delta = test: microbe, parasite or virus in culture; type: cell-based; details: VERO E6, plus 0.5 µM P-gp inhibitor CP-100356, MOI 0.005, 72 h, read-out: IC50 Delta Mean ± SD
SARS-CoV-2 omicron BA.1 = test: microbe, parasite or virus in culture; type: cell-based; details: read-out: IC50 BA.1 Mean ± SD
SARS-CoV-2 omicron BA.2 = test: microbe, parasite or virus in culture; type: cell-based; details: read-out: IC50 BA.2 Mean ± SD
in vitro = details: African green monkey
[1] = Severe acute respiratory syndrome coronavirus 2, Vero C1008
[2] = Severe acute respiratory syndrome coronavirus 2, Vero C1008, VERO E6, plus 0.5 µM P-gp inhibitor CP-100356, MOI 0.005, 72 h

Which “Decrease of cell viability” value (VERO E6 cells) does the source give for CP-100356 hydrochloride here?
The value was 20%.

What does the source list for `CC(C)(C)[C@H](NC(=O)C(F)(F)F)C(=O)N1C[C@H]2[C@@H]([C@H]1C(=O)N[C@H](C#N)C[C@@H]1CCNC1=O)C2(C)C` [Nirmatrelvir]?
IC50 (SARS-CoV-2 delta; [1]): 0.06 ± 0.01 µM; IC50 (SARS-CoV-2 omicron BA.1; [2]): 0.04 ± 0.02 µM; IC50 (SARS-CoV-2 omicron BA.2; [2]): 0.04 ± 0.01 µM; CC50 (VERO E6 cells; African green monkey): 40.7 ± 4.4 µM; CC50 (in vitro): 69.6 ± 1 µM

With `CCC(CC)COC(=O)[C@H](C)N[P@](=O)(OC[C@H]1O[C@@](C#N)(c2ccc3c(N)ncnn23)[C@H](O)[C@@H]1O)Oc1ccccc1` [Remdesivir] as the compound, how does the IC50 (SARS-CoV-2 delta; [1]) read?
The IC50 was 0.11 ± 0.08 µM.

What about the IC50 (SARS-CoV-2 omicron BA.1; [2]) of the same compound?
Its IC50 is 0.05 ± 0.04 µM.

And the IC50 (SARS-CoV-2 omicron BA.2; [2])?
Its IC50 is 0.08 ± 0.01 µM.

What does the source list for `O=c1nc(NO)ccn1[C@@H]1O[C@H](CO)[C@@H](O)[C@H]1O` [EIDD-1931]?
IC50 (SARS-CoV-2 delta): 1.5 ± 0.7 µM; IC50 (SARS-CoV-2 omicron BA.1): 1 ± 0.5 µM; IC50 (SARS-CoV-2 omicron BA.2): 0.8 ± 0.01 µM; CC50 (VERO E6 cells): 43.3 ± 6 µM
